The source of these data is patent US10793577B2, “Fused bicyclic compounds for the treatment of disease” (AKARNA THERAPEUTICS, LTD., priority 2014, dated 2020).

The target in the assay is T1, FXR (Homo sapiens, UniProt Q96RI1).
T1 construct: expressed in transfected cells
T1 sequence (Q96RI1 1-486): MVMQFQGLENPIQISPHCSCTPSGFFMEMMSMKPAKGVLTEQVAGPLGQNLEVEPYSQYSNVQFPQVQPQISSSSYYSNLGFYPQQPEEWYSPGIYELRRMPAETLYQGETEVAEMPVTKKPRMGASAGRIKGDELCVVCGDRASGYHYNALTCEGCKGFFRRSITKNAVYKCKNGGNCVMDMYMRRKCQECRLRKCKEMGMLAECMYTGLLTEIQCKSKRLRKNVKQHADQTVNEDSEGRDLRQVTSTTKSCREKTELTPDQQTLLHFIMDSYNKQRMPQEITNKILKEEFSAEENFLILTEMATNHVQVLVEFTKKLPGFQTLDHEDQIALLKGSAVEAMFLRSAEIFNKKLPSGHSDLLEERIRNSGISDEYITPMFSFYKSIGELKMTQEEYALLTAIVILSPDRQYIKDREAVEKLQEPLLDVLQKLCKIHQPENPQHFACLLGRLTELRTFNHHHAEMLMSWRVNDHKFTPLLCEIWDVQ
The assay can be described thus: FXR agonist transactivation assay (luciferase reporter). It counts as cell-based. To be noted: transiently transfected cells, 18 h stimulation with test compound, luciferase normalized to Renilla. As for the experimental part: Example 21: FXR Agonist Transactivation Assay
For the transactivation assay, cells were transiently transfected with 100 ng of reporter vector and 10 ng of expression plasmid. Forty nanograms of pGL4.74 was used as internal control for transfection efficiency. The pGEM vector was added to normalize the amounts of DNA transfected in each assay (2 μg). All transfections were performed using FuGENE HD (Roche, Mannheim, Germany) according to the manufacturer's protocol. Twenty-four hours after transfection, cells were stimulated with increasing concentrations of the test compounds for further 18 h. Control cultures receive vehicle (0.1% DMSO) alone. Luciferase values were normalized with Renilla reniformis luciferase units, for transfection efficiency.
For orientation: In a reporter assay the amount or activity of a reporter protein is the signal.
`CCOC(=O)C1=CN(C(=O)c2ccc(F)c(F)c2)CC(C)(C)c2c1[nH]c1ncccc21` [Compound 58, eth-2-yl 12-(3,4-difluorobenzoyl)-14,14-dimethyl-6,8,12-triazatricyclo[7.5.0.02,7]tetradeca-1(9),2,4,6,10-pentaene-10-carboxylate]: the EC50 (in general, the concentration that produces a half-maximal response) is below 1000 nM. `CC(C)OC(=O)C1=CN(C(=O)c2ccc(Cl)c(Cl)c2)CC(C)(C)c2c1[nH]c1ncc(Cl)cc21` [Compound 9, Propan-2-yl 4-chloro-12-(3,4-dichlorobenzoyl)-14,14-dimethyl-6,8,12-triazatricyclo[7.5.0.02,7]tetradeca-1(9),2,4,6,10-pentaene-10-carboxylate] came in with an EC50 of 1000 to 10000 nM. The same measure for `COc1nc2c3c([nH]c2cc1Cl)C(C(=O)OC(C)C)=CN(C(=O)c1ccc(F)c(F)c1)CC3(C)C` [Compound 101, propan-2-yl 5-chloro-4-methoxy-12-(3,4-difluorobenzoyl)-14,14-dimethyl-3,8,12-triazatricyclo[7.5.0.02,7]tetradeca-1(9),2,4,6,10-pentaene-10-carboxylate]: below 1000 nM.

Compound `CC(C)OC(=O)C1=CN(C(=O)c2ccc(F)c(F)c2)CC(C)(C)c2c1[nH]c1ccc(OCCO)nc21` [Compound 84, Propan-2-yl 12-(3,4-difluorobenzoyl)-14,14-dimethyl-4-(2-hydroxyethoxy)-3,8,12-triazatricyclo[7.5.0.02,7]tetradeca-1(9),2,4,6,10-pentaene-10-carboxylate] showed an EC50 below 1000 nM.

For `CC(C)OC(=O)C1=CN(C(=O)c2ccc(F)c(F)c2)CC(C)(C)c2c1[nH]c1cc(F)cnc21` [Compound 33], the EC50 was below 1000 nM. With `CC(C)OC(=O)C1=CN(C(=O)c2ccc(F)c(F)c2)CC(C)(C)c2c1[nH]c1cccnc21` [Compound 55, Propan-2-yl 12-(3,4-difluorobenzoyl)-14,14-dimethyl-3,8,12-triazatricyclo[7.5.0.02,7]tetradeca-1(9),2,4,6,10-pentaene-10-carboxylate], the EC50 is below 1000 nM.

The compound `COc1ccc2[nH]c3c(c2n1)C(C)(C)CN(C(=O)c1ccc(F)c(F)c1)C=C3C(=O)OC(C)C` [Compound 42, Propan-2-yl 12-(3,4-difluorobenzoyl)-14,14-dimethyl-4-methoxy-3,8,12-triazatricyclo[7.5.0.02,7]tetradeca-1(9),2,4,6,10-pentaene-10-carboxylate] showed an EC50 below 1000 nM. In turn, `CC(C)OC(=O)C1=CN(C(=O)c2ccc(F)c(F)c2)CC(C)(C)c2c1[nH]c1cc(Cl)cnc21` [Compound 22, Propan-2-yl 5-chloro-12-(3,4-difluorobenzoyl)-14,14-dimethyl-3,8,12-triazatricyclo[7.5.0.02,7]tetradeca-1(9),2,4,6,10-pentaene-10-carboxylate] displayed an EC50 below 1000 nM.

In turn, `CCOC(=O)C1=CN(C(=O)c2ccc(F)c(F)c2)CC(C)(C)c2c1[nH]c1cccnc21` [Compound 56, eth-2-yl 12-(3,4-difluorobenzoyl)-14,14-dimethyl-3,8,12-triazatricyclo[7.5.0.02,7]tetradeca-1(9),2,4,6,10-pentaene-10-carboxylate] displayed a concentration giving a half-maximal response (EC50) below 1000 nM. In the case of `CC(C)OC(=O)C1=CN(C(=O)c2ccc(F)c(F)c2)CC(C)(C)c2c1[nH]c1cc(OCCO)c(Cl)nc21` [Compound 72, Propan-2-yl 12-(3,4-difluorobenzoyl)-14,14-dimethyl-5-(2-hydroxyethoxy)-4-chloro-3,8,12-triazatricyclo[7.5.0.02,7]tetradeca-1(9),2,4,6,10-pentaene-10-carboxylate], the EC50 lay within 1000 to 10000 nM. The compound `CC(C)NC(=O)C1=CN(C(=O)c2ccc(F)c(F)c2)CC(C)(C)c2c1[nH]c1cc(Cl)cnc21` [Compound 85, 3-chloro-8-(3,4-difluorobenzoyl)-N-isopropyl-10,10-dimethyl-5,8,9,10-tetrahydropyrido[2′,3′:4,5]pyrrolo[2,3-d]azepine-6-carboxamide] returned an EC50 below 1000 nM. The same measure for “propan-2-yl 4-chloro-12-(4-(2-morpholinoethoxy)benzoyl)-14,14-dimethyl-6,8,12-triazatricyclo[7.5.0.02,7]tetradeca-1(9),2,4,6,10-pentaene-10-carboxylate [Compound 89]”: below 1000 nM; for `COc1ccc2[nH]c3c(c2n1)C(C)(C)CN(C(=O)c1ccc(OCCN2CCOCC2)cc1)C=C3C(=O)OC(C)C` [Compound 91, propan-2-yl 12-(4-(2-morpholinoethoxy)benzoyl)-14,14-dimethyl-4-(methoxy)-3,8,12-triazatricyclo[7.5.0.02,7]tetradeca-1(9),2,4,6,10-pentaene-10-carboxylate]: below 1000 nM; for `COc1ccc2[nH]c3c(c2n1)C(C)(C)CN(C(=O)c1ccc(F)cc1)C=C3C(=O)OC(C)C` [Compound 43, propan-2-yl 12-(4-fluorobenzoyl)-14,14-dimethyl-4-methoxy-3,8,12-triazatricyclo[7.5.0.02,7]tetradeca-1(9),2,4,6,10-pentaene-10-carboxylate]: below 1000 nM. The same measure for `CC(C)OC(=O)C1=CN(C(=O)c2ccc(F)c(F)c2)CC(C)(C)c2c1[nH]c1ncc(F)cc21` [Compound 59, propan-2-yl 4-fluoro-12-(3,4-difluorobenzoyl)-14,14-dimethyl-6,8,12-triazatricyclo[7.5.0.02,7]tetradeca-1(9),2,4,6,10-pentaene-10-carboxylate]: below 1000 nM; for `CC(C)OC(=O)C1=CN(C(=O)c2ccc(F)cc2)CC(C)(C)c2c1[nH]c1ncc(Cl)cc21` [Compound 11, propan-2-yl 4-chloro-12-(4-fluorobenzoyl)-14,14-dimethyl-6,8,12-triazatricyclo[7.5.0.02,7]tetradeca-1(9),2,4,6,10-pentaene-10-carboxylate]: 1000 to 10000 nM; for `CC(C)OC(=O)C1=CN(C(=O)c2ccc(F)c(F)c2)CC(C)(C)c2c1[nH]c1ncc(Cl)cc21` [Compound 10, propan-2-yl 4-chloro-12-(3,4-difluorobenzoyl)-14,14-dimethyl-6,8,12-triazatricyclo[7.5.0.02,7]tetradeca-1(9),2,4,6,10-pentaene-10-carboxylate]: below 1000 nM. `CC(C)OC(=O)C1=CN(C(=O)c2ccc(F)c(F)c2)CC(C)(C)c2c1[nH]c1ncccc21` [Compound 57, propan-2-yl 12-(3,4-difluorobenzoyl)-14,14-dimethyl-6,8,12-triazatricyclo[7.5.0.02,7]tetradeca-1(9),2,4,6,10-pentaene-10-carboxylate]: the EC50 is below 1000 nM.
